Laboratory results published in ChEMBL document CHEMBL5338738, “Discovery of Novel Sesquiterpene Lactone Derivatives as Potent PKM2 Activators for the Treatment of Ulcerative Colitis” (J Med Chem, 2023).
pIC50, pKd: −log10 of the molar value. Active and inactive are the calls of the source. The calls are words filed in the database; no cut-off is given here.

Experiments:
T-cell = experiment: Immunomodulatory activity in C57BL/6 mouse mesenteric lymph node T cells assessed as inhibition of concanavalin A stimulated T-cell proliferation incubated for 68 hrs by CCK-8 assay; format: functional, cell-based; conditions: C57BL/6, T-cell
[1] = target: Pyruvate kinase PKM (Mus musculus) (UniProt P52480); experiment: Binding affinity to PKM2 in C57BL/6 mouse mesenteric lymph node CD4+ve Th cells assessed as increase in denaturation temperature at 3 uM incubated for 4 hrs by Solvent-induced protein precipitation analysis; format: tissue-based; conditions: filed as activator
Pyruvate kinase PKM (Mus musculus), sequence (P52480 whole entry): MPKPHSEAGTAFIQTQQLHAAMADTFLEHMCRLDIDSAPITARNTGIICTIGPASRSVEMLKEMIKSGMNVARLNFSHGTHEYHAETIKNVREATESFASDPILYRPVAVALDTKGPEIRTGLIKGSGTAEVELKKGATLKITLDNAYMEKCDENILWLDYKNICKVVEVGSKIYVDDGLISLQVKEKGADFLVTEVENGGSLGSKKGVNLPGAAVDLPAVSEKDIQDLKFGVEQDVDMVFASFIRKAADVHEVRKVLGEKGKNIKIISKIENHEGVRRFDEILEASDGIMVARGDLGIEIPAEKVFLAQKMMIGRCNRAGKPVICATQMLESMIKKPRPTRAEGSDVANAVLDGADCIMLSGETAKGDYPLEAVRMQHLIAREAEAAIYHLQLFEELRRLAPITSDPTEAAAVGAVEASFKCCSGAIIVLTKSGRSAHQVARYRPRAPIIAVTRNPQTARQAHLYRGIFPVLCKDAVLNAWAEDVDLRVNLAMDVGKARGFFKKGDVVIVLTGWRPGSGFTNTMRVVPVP

Pyruvate kinase PKM = Pyruvate kinase PKM (Homo sapiens, UniProt P14618); experiment: Binding affinity to PKM2 (unknown origin) by SPR assay
Pyruvate kinase PKM, sequence (P14618 whole entry): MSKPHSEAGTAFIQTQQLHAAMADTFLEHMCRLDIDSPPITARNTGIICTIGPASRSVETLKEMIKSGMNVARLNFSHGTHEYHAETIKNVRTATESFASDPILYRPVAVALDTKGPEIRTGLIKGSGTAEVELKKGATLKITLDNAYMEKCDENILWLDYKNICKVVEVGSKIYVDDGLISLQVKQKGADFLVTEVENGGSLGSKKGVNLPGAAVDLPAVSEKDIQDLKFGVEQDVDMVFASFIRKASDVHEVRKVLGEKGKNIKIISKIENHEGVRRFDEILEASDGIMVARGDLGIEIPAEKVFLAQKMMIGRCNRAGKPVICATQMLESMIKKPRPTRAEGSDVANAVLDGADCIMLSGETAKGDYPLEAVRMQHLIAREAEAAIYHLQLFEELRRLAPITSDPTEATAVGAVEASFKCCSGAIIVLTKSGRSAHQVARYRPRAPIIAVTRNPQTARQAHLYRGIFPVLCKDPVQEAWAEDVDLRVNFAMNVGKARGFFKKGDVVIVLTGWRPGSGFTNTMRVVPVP

[2] = (§1) Inhibition of Th17 cells differentiation in anti-CD3/CD28 stimulated C57BL/6 mouse mesenteric lymph node CD4+ve Th cells assessed as decrease in proportion of IL17A-positive Th17 cells at 1 uM incubated for 96 hrs in presence of recombinant human TGF-beta, recombinant mouse IL-6 and recombinant mouse IL-23 by flow cytometry (Rvb= 16.7%); format: functional; conditions: C57BL/6, CD4+ve Th
[3] = as §1, with “at 3” for “at 1”; format: functional; conditions: C57BL/6, CD4+ve Th
CD4+ve Th [4] = experiment: (§2) Inhibition of Th17 cells differentiation in anti-CD3/CD28 stimulated C57BL/6 mouse mesenteric lymph node CD4+ve Th cells assessed as downregulation of IL17a mRNA expression level at 0.1 to 3 uM incubated for 96 hrs in presence of recombinant human TGF-beta, recombinant mouse IL-6 and recombinant mouse IL-23 by qPCR analysis; format: functional, cell-based; conditions: dose 0.1-3 µM
CD4+ve Th [5] = experiment: as §2, with “IL17f” for “IL17a”; format: functional, cell-based; conditions: dose 0.1-3 µM
CD4+ve Th [6] = experiment: Cytotoxicity against C57BL/6 mouse mesenteric lymph node CD4+ve Th cells assessed as reduction in cell viability at 0.3 to 3 uM incubated for 96 hrs by MTT assay; format: toxicity, cell-based; conditions: dose 0.3-3 µM
CD4+ve Th [7] = experiment: as §2, with “increase in PKM2 tetramer formation” for “downregulation of IL17a mRNA expression level”, “Western blot” for “qPCR”; format: functional, cell-based; conditions: dose 0.1-3 µM
CD4+ve Th [8] = experiment: (§3) Inhibition of aerobic glycolysis in anti-CD3/CD28 stimulated C57BL/6 mouse mesenteric lymph node CD4+ve Th cells assessed as reduction in glucose utilization by measuring glucose level at 0.3 to 3 uM incubated for 96 hrs in presence of recombinant human TGF-beta, recombinant mouse IL-6 and recombinant mouse IL-23 by colorimetric analysis; format: functional, cell-based; conditions: dose 0.3-3 µM
CD4+ve Th [9] = experiment: as §3, with “decrease” for “reduction”, “ATP production” for “glucose utilization by measuring glucose level”, “assay” for “analysis”; format: functional, cell-based; conditions: dose 0.3-3 µM
CD4+ve Th [10] = experiment: as §2, with “aerobic glycolysis” for “Th17 cells differentiation”, “Glut1” for “IL17a”, “0.3” for “0.1”; format: functional, cell-based; conditions: dose 0.3-3 µM
CD4+ve Th [11] = experiment: as §3, with “downregulation of Glut1 protein expression” for “reduction in glucose utilization by measuring glucose”, “Western blot” for “colorimetric”; format: functional, cell-based; conditions: dose 0.3-3 µM
CD4+ve Th [12] = experiment: as §3, with “downregulation of HK2 protein expression” for “reduction in glucose utilization by measuring glucose”, “Western blot” for “colorimetric”; format: functional, cell-based; conditions: dose 0.3-3 µM
Mus musculus [13] = experiment: Anti-colitis activity against DSS-induced ulcerative colitis C57BL/6 mouse model assessed as reduction in disease activity index (DAI) score at 12.5 to 25 mg/kg, po for 10 days consecutively; format: functional, organism-based; conditions: dose 12.5-25 mg/kg, time 10.0 day
Mus musculus [14] = experiment: Anti-colitis activity against DSS-induced ulcerative colitis C57BL/6 mouse model assessed as reduction in spleen index at 12.5 to 25 mg/kg, po for 10 days consecutively; format: functional, organism-based; conditions: dose 12.5-25 mg/kg, time 10.0 day
Mus musculus [15] = experiment: Anti-colitis activity against DSS-induced ulcerative colitis C57BL/6 mouse model assessed as decrease in MPO level in colon at 12.5 to 25 mg/kg, po for 10 days consecutively; format: functional, organism-based; conditions: dose 12.5-25 mg/kg, time 10.0 day
Mus musculus [16] = experiment: Anti-colitis activity against DSS-induced ulcerative colitis C57BL/6 mouse model assessed as decrease in IL-1beta mRNA expression level in colon at 12.5 to 25 mg/kg, po for 10 days consecutively by qPCR analysis; format: functional, organism-based; conditions: dose 12.5-25 mg/kg, time 10.0 day
[17] = Toxicity in C57BL/6 mouse assessed as histological change in liver at 6.25 to 25 mg/kg, po for 10 days consecutively by H and E staining based microscopy; format: organism-based; conditions: in vivo, 240 h, dose 6.25-25 mg/kg, time 10 day
[18] = Toxicity in C57BL/6 mouse assessed as histological change in lung at 6.25 to 25 mg/kg, po for 10 days consecutively by H and E staining based microscopy; format: organism-based; conditions: in vivo, 240 h, dose 6.25-25 mg/kg, time 10 day
[19] = Toxicity in C57BL/6 mouse assessed as histological change in kidney at 6.25 to 25 mg/kg, po for 10 days consecutively by H and E staining based microscopy; format: organism-based; conditions: in vivo, 240 h, dose 6.25-25 mg/kg, time 10 day
[20] = Toxicity in C57BL/6 mouse assessed as body weight change at 6.25 to 25 mg/kg, po for 10 days consecutively; format: organism-based; conditions: in vivo, 240 h, dose 6.25-25 mg/kg, time 10 day
Mus musculus [21] = experiment: Anti-colitis activity against TNBS-induced ulcerative colitis BALB/c mouse model assessed as decrease in inflammatory injury by measuring MPO level at 12.5 to 25 mg/kg, po for consecutive 7 days; format: functional, organism-based; conditions: dose 12.5-25 mg/kg, time 7.0 day
Mus musculus [22] = experiment: Anti-colitis activity against DSS-induced ulcerative colitis C57BL/6 mouse model assessed as downregulation of IL17a mRNA expression level in colon at 12.5 to 25 mg/kg, po for 10 days consecutively by qPCR assay; format: functional, organism-based; conditions: dose 12.5-25 mg/kg, time 10.0 day
Mus musculus [23] = experiment: Anti-colitis activity against DSS-induced ulcerative colitis C57BL/6 mouse model assessed as downregulation of RORC mRNA expression level in mesenteric lymph nodes at 12.5 to 25 mg/kg, po for 10 days consecutively by qPCR assay; format: functional, organism-based; conditions: dose 12.5-25 mg/kg, time 10.0 day
Mus musculus [24] = experiment: Anti-colitis activity against DSS-induced ulcerative colitis C57BL/6 mouse model assessed as downregulation of Foxp3 mRNA expression level in colon at 6.25 to 25 mg/kg, po for 10 days consecutively by qPCR assay; format: functional, organism-based; conditions: dose 6.25-25 mg/kg, time 10.0 day
Mus musculus [25] = experiment: Anti-colitis activity against DSS-induced ulcerative colitis C57BL/6 mouse model assessed as decrease in percentage of Th17 cells in colonic lamina propria at 12.5 to 25 mg/kg, po for 10 days consecutively by flow cytometry; format: functional, organism-based; conditions: dose 12.5-25 mg/kg, time 10.0 day
[26] = Protein binding in rat plasma assessed as bound fraction; format: ADME, cell-free; conditions: read-out: PPB (converted)
[27] = AUCt in Sprague-Dawley rat at 75 mg/kg,po and measured upto 24 hrs by LC-MS/MS analysis; format: ADME, organism-based; design: time < 24 hrs, dose 75 mg/kg, route po; conditions: in vivo
[28] = Cmax in Sprague-Dawley rat at 8 mg/kg,iv and measured upto 24 hrs by LC-MS/MS analysis; format: ADME, organism-based; design: time < 24 hrs, dose 8 mg/kg, route iv; conditions: in vivo
[29] = Clearance in Sprague-Dawley rat at 8 mg/kg,iv and measured upto 24 hrs by LC-MS/MS analysis; format: ADME, organism-based; conditions: in vivo
[30] = Volume of distribution in Sprague-Dawley rat at 8 mg/kg,iv and measured upto 24 hrs by LC-MS/MS analysis; format: ADME, organism-based; conditions: in vivo

With `C=C1C(=O)O[C@H]2[C@H]1CC[C@@]1(C)[C@@H](CC[C@@]3(C)O[C@@H]23)C1(F)F` the pIC50 (T-cell) was 6.23, the Activity [1] was “Active” and the pKd (Pyruvate kinase PKM) was 7.74. For the same molecule, the IL17A+ cells at 1 µM [2] was 8.1%, the IL17A+ cells at 3 µM [3] was 4.26% and the inhibition (CD4+ve Th [4]) was “Active”. The inhibition (CD4+ve Th [5]) was “Active”, the Activity (CD4+ve Th [6]) was “Non-Toxic” and the inhibition (CD4+ve Th [7]) was “Active”. For the same molecule, the inhibition (CD4+ve Th [8]) was “Active”, the inhibition (CD4+ve Th [9]) was “Active” and the inhibition (CD4+ve Th [10]) was “Active”. For the same molecule, the inhibition (CD4+ve Th [11]) was “Active”, the inhibition (CD4+ve Th [12]) was “Active” and the Activity (Mus musculus [13]) was “Active”. The Activity (Mus musculus [14]) was “Active”, the Activity (Mus musculus [15]) was “Active” and the Activity (Mus musculus [16]) was “Active”. For the same molecule, the Activity [17] was “Non-Toxic”, the Activity [18] was “Non-Toxic” and the Activity [19] was “Non-Toxic”. The Activity [20] was “Non-Toxic”, the Activity (Mus musculus [21]) was “Active” and the Activity (Mus musculus [22]) was “Active”. For the same molecule, the Activity (Mus musculus [23]) was “Active”, the Activity (Mus musculus [24]) was “inactive” and the Activity (Mus musculus [25]) was “Active”. The fraction unbound [26] was 0.201, the AUC(0-t) at 24 h [27] was 322 ng·h/mL and the Cmax [28] was 190 ng/mL. The clearance [29] was 103 mL/min/kg and the Vd [30] was 17.6 L/kg.
